Measured values: US9593113B2, “Imide and acylurea derivatives as modulators of the glucocorticoid receptor” (BRISTOL-MYERS SQUIBB COMPANY, priority 2013, dated 2017)
Where two headings read alike, the source gives them in different places.

What was measured:
[1] = system: AP-1 induced transcriptional activity; assay: Cellular transrepressional assay (AP-1 luciferase reporter, PMA-activated A549 cell); format: cell-based; conditions: A549 cell, 10 ng/ml PMA, 7 hours; for EC50: read-out: AP-1 (EC50, nM) (measured in cellular transrepression assay)
Method: To measure the ability of test molecules to inhibit AP-1 induced transcriptional activity we utilized an A549 cell which was stably transfected with a plasmid containing 7×AP-1 DNA binding sites (pAP-1-Luc plasmid, Stratagene Co., La Jolla, Calif.) followed by the gene for luciferase. Cells were activated with 10 ng/ml of phorbol myristic acid (PMA) plus or minus test molecules for 7 hours. After 7 hours a luciferase reagent was added to measure luciferase enzymatic activity in the cell. After a 10 minute incubation of luciferase reagent with cells, luminescence was measured in a TOPCOUNT® luminescence counter. Repression of AP-1 activity was calculated as the percentage decrease in the signal induced by PMA alone. Test molecules were analyzed in the concentration range from 0.1 nM to 40 μM. EC50s were determined by using standard curve fitting methods such as Excel fit (Microsoft Co.). An EC50 is the test molecule concentration at which there is a 50% repression of the maximal inhibition of transcription, i.e., a 50% reduction of AP-1 activity.

[2] = molecular target: human full-length glucocorticoid receptor (Homo sapiens (Human), UniProt P04150); assay: Glucocorticoid Receptor Binding Assay (II), fluorescence polarization competitor kit; conditions: read-out: GR (Ki, nM) (measured in GR binding Assay II)
Method: In order to measure the binding of compounds on the glucocorticoid receptor a commercially available kit was used (Glucocorticoid receptor competitor assay kit, PanVera Co., Madison, Wis., P2816). Briefly, a cell lysate containing recombinantly expressed human full-length glucocorticoid receptor was mixed with a fluorescently labeled glucocorticoid (1 nM Fluormone GS1) in the presence or absence of test compound. After one hour at room temperature, the fluorescence polarization (FP) of the samples were measured.

Sequence of human full-length glucocorticoid receptor (P04150 whole entry): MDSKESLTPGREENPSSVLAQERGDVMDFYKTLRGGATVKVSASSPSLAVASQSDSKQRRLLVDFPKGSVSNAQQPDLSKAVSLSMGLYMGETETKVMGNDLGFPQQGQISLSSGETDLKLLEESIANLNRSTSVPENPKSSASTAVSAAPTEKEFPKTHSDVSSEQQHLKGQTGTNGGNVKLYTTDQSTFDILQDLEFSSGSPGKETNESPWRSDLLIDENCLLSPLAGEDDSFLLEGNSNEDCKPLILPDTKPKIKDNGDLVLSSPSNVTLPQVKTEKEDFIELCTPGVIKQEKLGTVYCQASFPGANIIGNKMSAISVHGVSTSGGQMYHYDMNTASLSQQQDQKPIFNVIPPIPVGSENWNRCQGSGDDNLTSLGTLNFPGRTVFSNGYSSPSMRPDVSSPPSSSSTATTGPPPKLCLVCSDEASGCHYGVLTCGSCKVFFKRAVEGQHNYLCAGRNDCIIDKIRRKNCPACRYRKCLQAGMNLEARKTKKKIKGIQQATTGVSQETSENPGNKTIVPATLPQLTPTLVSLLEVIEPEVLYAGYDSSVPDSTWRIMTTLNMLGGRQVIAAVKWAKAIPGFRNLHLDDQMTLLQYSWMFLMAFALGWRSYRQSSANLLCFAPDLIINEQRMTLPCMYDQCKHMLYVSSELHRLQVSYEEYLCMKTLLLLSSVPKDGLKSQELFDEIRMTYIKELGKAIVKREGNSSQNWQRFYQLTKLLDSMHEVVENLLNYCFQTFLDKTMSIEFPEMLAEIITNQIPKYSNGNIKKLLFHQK

CC(C)(C(=O)NC(=O)NCCO)[C@@H]1c2ccc(-c3ccc(C(=O)N4CCOCC4)cc3)nc2Oc2c(F)cccc21 [Example 77]
AP-1 Max % inhibition (measured in cellular transrepression assay) [1]: 55.34%
EC50 ([1]; Homo sapiens): 786 nM

CNC(=O)NC(=O)C(C)(C)[C@@H]1c2ccc(-c3ccc(S(C)(=O)=O)cc3)nc2Oc2c(F)cccc21 [Example 13]
Ki [2]: 13.6 nM
AP-1 Max % inhibition (measured in cellular transrepression assay) [1]: 31.60%
EC50 [1]: 483 nM

CN1CCN(c2ncc(-c3ccc4c(n3)Oc3c(F)cccc3[C@@H]4C(C)(C)C(=O)NC(N)=O)cn2)CC1 [Example 71]
Ki [2]: 25.9 nM
AP-1 Max % inhibition (measured in cellular transrepression assay) [1]: 39.16%
EC50 ([1]; Homo sapiens): 93.6 nM

CC(C)(C(=O)NC(N)=O)[C@@H]1c2ccc(-c3ccc(C(=O)N4CCCC4)cc3)nc2Oc2c(F)cccc21 [Example 30]
Ki [2]: 0.72 nM
AP-1 Max % inhibition (measured in cellular transrepression assay) [1]: 63.94%
EC50 [1]: 1.59 nM

COC(=O)NC(=O)C(C)(C)[C@@H]1c2ccc(-c3ccc(C(=O)OC)cc3)nc2Oc2c(F)cccc21 [Example 26]
AP-1 Max % inhibition (measured in cellular transrepression assay) [1]: 6.98%
EC50 ([1]; Homo sapiens): 5000 nM

CC(C)(C(=O)NC(=O)Nc1ccccc1)[C@@H]1c2ccc(-c3ccc(C(=O)N4CCOCC4)cc3)nc2Oc2c(F)cccc21 [Example 21]
AP-1 Max % inhibition (measured in cellular transrepression assay) [1]: 39.92%
EC50 [1]: 21.7 nM

CC(=O)NC(=O)C(C)(C)[C@H]1c2ccccc2Oc2nc(-c3ccc(C(=O)N4CCOCC4)cc3)ccc21 [Example 4]
AP-1 Max % inhibition (measured in cellular transrepression assay) [1]: 67.93%
EC50 ([1]; Homo sapiens): 6.65 nM

CC(C)(C(=O)NC(N)=O)[C@@H]1c2ccc(-c3ccncc3)nc2Oc2c(F)cccc21 [Example 73]
Ki [2]: 1.72 nM
AP-1 Max % inhibition (measured in cellular transrepression assay) [1]: 55.78%
EC50 ([1]; Homo sapiens): 20.1 nM

CCC(C)c1ccc(-c2ccc3c(n2)Oc2ccccc2[C@@H]3C(C)(C)C(=O)NC(N)=O)cc1 (stereo partly drawn) [Example 38]
Ki [2]: 1.74 nM
AP-1 Max % inhibition (measured in cellular transrepression assay) [1]: 56.33%
EC50 [1]: 14.1 nM

CNC(=O)NC(=O)C(C)(C)[C@@H]1c2ccc(-c3ccc(OC(C)C)cc3)nc2Oc2c(F)cccc21 [Example 16]
Ki [2]: 1.6 nM
AP-1 Max % inhibition (measured in cellular transrepression assay) [1]: 49.58%
EC50 [1]: 35.1 nM

CC(C)(C(=O)NC(N)=O)[C@H]1c2ccccc2Oc2nc(-c3ccc(C(=O)N4CCOCC4)cc3)ccc21 [Example 28]
AP-1 Max % inhibition (measured in cellular transrepression assay) [1]: 68.66%
EC50 ([1]; Homo sapiens): 7.63 nM

CC(C)Oc1ccc(-c2ccc3c(n2)Oc2ccccc2[C@@H]3C(C)(C)C(=O)NC(N)=O)cn1 [Example 65]
Ki [2]: 0.5 nM
AP-1 Max % inhibition (measured in cellular transrepression assay) [1]: 54.73%
EC50 [1]: 4.89 nM

CC(C)S(=O)(=O)c1ccc(-c2ccc3c(n2)Oc2ccccc2[C@@H]3C(C)(C)C(=O)NC(N)=O)cc1 [Example 82]
AP-1 Max % inhibition (measured in cellular transrepression assay) [1]: 60.06%
EC50 ([1]; Homo sapiens): 6.69 nM

CC(C)(C(=O)NC(N)=O)[C@@H]1c2ccc(-c3ccc(C(=O)N4CCCC4)nc3)nc2Oc2c(F)cccc21 [Example 46]
Ki [2]: 1.97 nM
AP-1 Max % inhibition (measured in cellular transrepression assay) [1]: 65.90%
EC50 [1]: 16.5 nM

COc1ccc2c(c1)Oc1ccccc1[C@@H]2C(C)(C)C(=O)NC(N)=O [Example 74]
AP-1 Max % inhibition (measured in cellular transrepression assay) [1]: 7.70%
EC50 ([1]; Homo sapiens): 5000 nM

CCS(=O)(=O)c1ccc(-c2ccc3c(n2)Oc2ccccc2[C@@H]3C(C)(C)C(=O)NC(N)=O)cc1 [Example 39]
Ki [2]: 0.93 nM
AP-1 Max % inhibition (measured in cellular transrepression assay) [1]: 58.23%
EC50 [1]: 13 nM

CC(C)(C(=O)NC(N)=O)[C@@H]1c2ccc(-c3ccc(C(=O)N4CCCCC4)cc3)nc2Oc2c(F)cccc21 [Example 83]
Ki [2]: 1.11 nM
AP-1 Max % inhibition (measured in cellular transrepression assay) [1]: 86.42%
EC50 ([1]; Homo sapiens): 5.89 nM

CNC(=O)NC(=O)C(C)(C)[C@@H]1c2ccc(-c3ccc(OC(C)C)nc3)nc2Oc2c(F)cccc21 [Example 17]
Ki [2]: 9.68 nM
AP-1 Max % inhibition (measured in cellular transrepression assay) [1]: 37.10%
EC50 [1]: 2500 nM

CC(C)(O)CNC(=O)NC(=O)C(C)(C)[C@@H]1c2ccc(-c3ccc(C(=O)N4CCOCC4)cc3)nc2Oc2c(F)cccc21 [Example 78]
AP-1 Max % inhibition (measured in cellular transrepression assay) [1]: 46.32%
EC50 ([1]; Homo sapiens): 340 nM

Cc1nnn(-c2ccc(-c3ccc4c(n3)Oc3ccccc3[C@@H]4C(C)(C)C(=O)NC(N)=O)cc2)n1 [Example 67]
Ki [2]: 1.51 nM
AP-1 Max % inhibition (measured in cellular transrepression assay) [1]: 53.28%
EC50 [1]: 4.98 nM

CC(=O)NC(=O)C(C)(C)[C@@H]1c2ccc(-c3ccc(C(=O)N4CCOCC4)cc3)nc2Oc2c(F)cccc21 [Example 2]
AP-1 Max % inhibition (measured in cellular transrepression assay) [1]: 67.48%
EC50 ([1]; Homo sapiens): 4.97 nM

CC(C)(C(=O)NC(N)=O)[C@H]1c2ccccc2Oc2nc(-c3ccc(C(=O)N4CCCC4)c(Cl)c3)ccc21 [Example 52]
Ki [2]: 123 nM
AP-1 Max % inhibition (measured in cellular transrepression assay) [1]: 57.02%
EC50 [1]: 815 nM

CCCCc1ccc(-c2ccc3c(n2)Oc2c(F)cccc2[C@@H]3C(C)(C)C(=O)NC(N)=O)cc1 [Example 43]
Ki [2]: 0.91 nM
AP-1 Max % inhibition (measured in cellular transrepression assay) [1]: 67.14%
EC50 [1]: 5.39 nM

CC(C)Oc1ccc(-c2ccc3c(n2)Oc2ccccc2[C@@H]3C(C)(C)C(=O)NC(N)=O)cc1 [Example 36]
Ki [2]: 0.8 nM
AP-1 Max % inhibition (measured in cellular transrepression assay) [1]: 59.83%
EC50 [1]: 16.2 nM

CC(=O)NC(=O)C(C)(C)[C@@H]1c2ccc(-c3ccc(C(=O)N(C)C)cc3)nc2Oc2c(F)cccc21 [Example 3]
AP-1 Max % inhibition (measured in cellular transrepression assay) [1]: 79.66%
EC50 ([1]; Homo sapiens): 267 nM

CCNC(=O)NC(=O)C(C)(C)[C@@H]1c2ccc(-c3ccc(C(=O)N4CCOCC4)cc3)nc2Oc2c(F)cccc21 [Example 22]
AP-1 Max % inhibition (measured in cellular transrepression assay) [1]: 44.77%
EC50 [1]: 8.21 nM

CNC(=O)NC(=O)C(C)(C)[C@@H]1c2ccc(-c3ccc(S(=O)(=O)C(C)C)cc3)nc2Oc2c(F)cccc21 [Example 25]
Ki [2]: 5.26 nM
AP-1 Max % inhibition (measured in cellular transrepression assay) [1]: 25.41%
EC50 [1]: 347 nM

CNC(=O)NC(=O)C(C)(C)[C@@H]1c2ccc(-c3cnc(N4CCN(C)CC4)nc3)nc2Oc2c(F)cccc21 [Example 18]
Ki [2]: 239 nM
AP-1 Max % inhibition (measured in cellular transrepression assay) [1]: 21.96%
EC50 [1]: 5000 nM

CC(C)(C(=O)NC(N)=O)[C@H]1c2ccccc2Oc2nc(-c3ccc(C(=O)N4CCOCC4)nc3)ccc21 [Example 55]
AP-1 Max % inhibition (measured in cellular transrepression assay) [1]: 60.59%
EC50 [1]: 116 nM

CC(C)(O)c1ccc(-c2ccc3c(n2)Oc2c(F)cccc2[C@@H]3C(C)(C)C(=O)NC(N)=O)cc1 [Example 69]
AP-1 Max % inhibition (measured in cellular transrepression assay) [1]: 67.09%
EC50 ([1]; Homo sapiens): 2.03 nM

CNC(=O)NC(=O)C(C)(C)[C@@H]1c2ccc(-c3ccc(C(C)(C)O)cc3)nc2Oc2c(F)cccc21 [Example 15]
AP-1 Max % inhibition (measured in cellular transrepression assay) [1]: 61.15%
EC50 ([1]; Homo sapiens): 47.1 nM

CC(C)NC(=O)NC(=O)C(C)(C)[C@@H]1c2ccc(-c3ccc(C(=O)N4CCOCC4)cc3)nc2Oc2c(F)cccc21 [Example 19]
AP-1 Max % inhibition (measured in cellular transrepression assay) [1]: 25.94%
EC50 ([1]; Homo sapiens): 199 nM

CC(C)(O)c1ccc(-c2ccc3c(n2)Oc2c(F)cccc2[C@@H]3C(C)(C)C(=O)NC(=O)NCCO)cc1 [Example 80]
AP-1 Max % inhibition (measured in cellular transrepression assay) [1]: 44.42%
EC50 ([1]; Homo sapiens): 84.6 nM

CC(C)(C(=O)NC(N)=O)[C@@H]1c2ccc(-c3ccc(C(=O)N4CCOCC4)c(F)c3)nc2Oc2c(F)cccc21 [Example 56]
AP-1 Max % inhibition (measured in cellular transrepression assay) [1]: 72.50%
EC50 [1]: 6.39 nM

CC(C)(O)CNC(=O)NC(=O)C(C)(C)[C@@H]1c2ccc(-c3ccc(C(C)(C)O)cc3)nc2Oc2c(F)cccc21 [Example 79]
AP-1 Max % inhibition (measured in cellular transrepression assay) [1]: 36.12%
EC50 ([1]; Homo sapiens): 789 nM

CC(C)(C(=O)NC(=O)N1CCOCC1)[C@@H]1c2ccc(-c3ccc(C(=O)N4CCOCC4)cc3)nc2Oc2c(F)cccc21 [Example 10]
AP-1 Max % inhibition (measured in cellular transrepression assay) [1]: 66.12%
EC50 ([1]; Homo sapiens): 623 nM

CC(C)(C(=O)NC(=O)NC1CCCC1)[C@@H]1c2ccc(-c3ccc(C(=O)N4CCOCC4)cc3)nc2Oc2c(F)cccc21 [Example 20]
AP-1 Max % inhibition (measured in cellular transrepression assay) [1]: 29.26%
EC50 [1]: 135 nM

CC(C)(C(=O)NC(N)=O)[C@@H]1c2ccc(-c3ccc(C(=O)N4CCC4)cc3)nc2Oc2c(F)cccc21 [Example 84]
AP-1 Max % inhibition (measured in cellular transrepression assay) [1]: 67.75%
EC50 ([1]; Homo sapiens): 4.22 nM

CCC(=O)NC(=O)C(C)(C)[C@@H]1c2ccc(-c3ccc(C(=O)N4CCOCC4)cc3)nc2Oc2c(F)cccc21 [Example 5]
AP-1 Max % inhibition (measured in cellular transrepression assay) [1]: 32.83%
EC50 ([1]; Homo sapiens): 180 nM

CNC(=O)NC(=O)C(C)(C)[C@@H]1c2ccc(Cl)nc2Oc2c(F)cccc21 [Example 14]
AP-1 Max % inhibition (measured in cellular transrepression assay) [1]: 54.92%
EC50 ([1]; Homo sapiens): 337 nM

CC(C)(C(=O)NC(N)=O)[C@H]1c2ccccc2Oc2nc(-c3ccc(C(=O)N4CCOCC4)c(F)c3)ccc21 [Example 44]
AP-1 Max % inhibition (measured in cellular transrepression assay) [1]: 69.43%
EC50 [1]: 13.9 nM
